In brackets after ≈: the same amount, converted by molar mass. Read-outs that look alike come from different tables or passages of the source. Positions of bridges follow the written chain, without caps; N, C: chain ends. Residues, ends and D or L forms follow the SMILES beside them.
Columns and labels:
[1] = test system: S. saprophytics (ATCCBAA750); assay: microbe, parasite or virus in culture; assay type: cell-based, Staphylococcus saprophyticus; conditions: ATCCBAA750, 18 h
Procedure: (§1) The minimum inhibitory concentration (MIC) of the Brevinin-1BW was measured in 96-well microtiter plates according to the Clinical and Laboratory Standards Institute (CLSI). The activated strains were treated with Mueller Hinton Agar (MHA) solid medium. Single colonies were picked and expanded to the logarithmic growth phase, and the solution was diluted to 2 × 10^6 CFU/mL using the McFarland turbidity standard. The MIC was determined with the two-fold dilution method. Briefly, 50 μL of Mueller Hinton (MH) medium was added to a 96-well plate in advance. Then, 50 μL of AMP solution was added to the first well, and 50 μL was pipetted into the next well after mixing using a row gun, while 50 μL was discarded from the last well. Final concentrations of Brevinin-1BW were 100, 50, 25, 12.5, 6.25, and 3.125 μg/mL. A 50 μL volume of the diluted bacterial solution was added, and the final concentration of the bacterial solution was 1 × 10^6 CFU/mL. This was then placed into a 37 °C incubator for 18 h until the next day to observe the degree of turbidity of the 96-well plate and measure the absorbance of the wells at 600 nm with a multifunctional microplate reader (SpectraMax iD5, Molecular Devices, Sunnyvale, CA, USA). The absence of turbidity and the measured concentration of absorbance being less than the opposing group was taken as the MIC. The positive control used ampicillin at the same final concentration as Brevinin-1BW, the negative control used 50 μL of MH medium mixed with 50 μL of 2 × 10^6 CFU/mL bacterial solution, and the blank contained only 100 μL of MH medium. Three replicate wells were set up for each experiment, and each experiment was repeated three times. The MIC and all concentrations above the MIC of bacterial solution coated on MHA solid medium were placed into 37 °C incubator incubation for 18 h. The lowest concentration resulting in no colony growth was taken as the minimum bactericidal concentration (MBC).

E. faecalis (ATCC29212) = assay: microbe, parasite or virus in culture; assay type: cell-based, Enterococcus faecalis; conditions: ATCC29212, 18 h
Procedure: as §1

S. aureus (ATCC 25923) = assay type: cell-based, Staphylococcus aureus; conditions: ATCC 25923, 1 h
Procedure: The temperature, serum, and pH stability of antimicrobial peptide Brevinin-1BW was investigated. S. aureus (ATCC 25923) was used to determine its stability. The antimicrobial peptide solution was prepared and placed at −20 °C, 4 °C, 37 °C, 60 °C, and 100 °C for 1 h. The MIC was measured with 96-well plate method to detect the effect of temperature. […] The pH stability was achieved by inoculating S. aureus into MH medium and culturing them with shaking to reach the logarithmic growth phase. This was then diluted to 10^6 CFU/mL. Brevinin-1BW was incubated in PBS at various pH values, pH = 2 or 12, for 1 h at 37 °C. The minimal inhibitory concentrations (MIC) of the peptides were then determined. All the above experiments were repeated more than three times.

[2] = LPS-binding assay, checkerboard with S. aureus; assay type: cell-based; conditions: LPS higher than 5 μg/mL, 37 °C, 18 h, OD600
Procedure: The lipopolysaccharide-binding assay was performed using the checkerboard method. Dissolve and prepare LPS (Solarbio, Beijing, China) and Brevinin-1BW with Muller Hinton (MH), add LPS with a final concentration of 0–160 μg/mL along the X-axis, and add 100–0 μg/mL Brevinin-1BW along the Y-axis. Then, an additional 10^5 CFU of S. aureus was added to bring the final volume to 200 μL. It was incubated at 37 °C for 18 h, measure the OD 600 value, and the MIC value at different LPS concentrations was recorded. The experiment was repeated three times.

S. aureus (ATCC25923) = assay: microbe, parasite or virus in culture; assay type: cell-based, Staphylococcus aureus
Procedure: as §1

[3] = test system: S. aureus (MDR ATCC29213); assay: microbe, parasite or virus in culture; assay type: cell-based, Staphylococcus aureus; conditions: ATCC29213, 18 h
Procedure: as §1

HCT116 = assay type: cell-based, human; conditions: 24 h
Procedure: (§2) Medium was prepared to contain 10% FBS (TransGen Biotech, China) and 1% penicillin-streptomycin (Biosharp, Guangzhou, China). A549, U-2OS, HePG2, HaCaT, HUVEC, and 293T cells were cultured in DMEM medium (Gibco, New York, NY, USA). A375, HCT116, Hela, and RAW264.7 cells were cultured in RPMI 1640 medium (Gibco, New York, NY, USA). The cytotoxicity of Brevinin-1BW was determined using the Cell Counting Kit-8 as follows: detached the cells from cell culture flasks with 0.25% trypsin, counted with a hemocytometer plate and then prepared into a cell suspension containing 5 × 10^3 cells/mL. Then, 90 μL of the cell suspension was inoculated into a 96-well plate and incubated at 37 °C in a 5% CO2-humidified atmosphere for 24 h. A 10 μL volume of the peptide was subsequently added to each well and co-incubated with the cells for 24 h. Then, 10 μL of CCK8 (Abbkine, Wuhan, China) was added to each well and incubated for a further 2 h. The absorbance of each well at 450 nm was measured using a multifunctional enzyme marker. […] Three replicate wells were set up for each experiment, and each experiment was repeated three times. The formula for calculating the cell viability is shown below.

A549 = assay type: cell-based, human; conditions: 24 h
Procedure: as §2

HaCaT = assay type: cell-based, human; conditions: 24 h
Procedure: as §2

ABTS radical scavenging = conditions: at 200 μg/mL, room temperature, 6 min, absorbance 734 nm
Procedure: ABTS^+ scavenging capacity: A 7 mM ABTS (Med Chem Express, NJ, USA) solution and 140 mM potassium persulfate (Aladdin, Shanghai, China) solution were prepared. A 5 mL volume of ABTS was taken and mixed with 88 μL of potassium persulfate before being placed in the dark at room temperature for 14 h to form the ABTS radical stock solution. The ABTS radical stock solution was then diluted with 95% ethanol by volume to reach an OD734 nm = 0.7. Then, 10 μL of Brevinin-1BW solution was mixed with 50 μL of ABTS radical stock solution, and the resulting absorbance was measured at 734 nm for 6 min at room temperature, which was recorded as A1. The absorbance of 95% ethanol was measured as A2. The same concentration of vitamin C was used as the positive control. The clearance was calculated according to the following equation: ABTS^+ Clearance Rate%=(A2−A1)/A2×100

CC[C@H](C)[C@@H]1NC(=O)[C@H](CCCCN)NC(=O)[C@@H](NC(=O)[C@H](Cc2ccccc2)NC(=O)[C@@H](NC(=O)[C@@H](NC(=O)[C@@H]2CCCN2C(=O)[C@H](CC(C)C)NC(=O)[C@H](Cc2ccccc2)NC(=O)[C@H](CO)NC(=O)[C@H](C)NC(=O)[C@H](C)NC(=O)[C@H](CC(C)C)NC(=O)CNC(=O)[C@H](C)NC(=O)[C@H](CC(C)C)NC(=O)[C@H](CC(C)C)NC(=O)[C@@H]2CCCN2C(=O)[C@H](CC(C)C)NC(=O)[C@@H](N)Cc2ccccc2)[C@@H](C)O)[C@@H](C)CC)CSSC[C@@H](C(=O)O)NC(=O)[C@H](CCCCN)NC(=O)[C@H](CCCNC(=N)N)NC(=O)[C@H](CO)NC1=O [Brevinin-1BW] (H-FLPLLAGLAASFLPTIFCKISRKC-OH; disulfide 18-24)
MBC [1]: 12.5 µg/mL (≈ 4.79 µM) | MIC [1]: 6.25 µg/mL (≈ 2.4 µM) | MBC (E. faecalis (ATCC29212)): 12.5 µg/mL (≈ 4.79 µM) | MIC (E. faecalis (ATCC29212)): 3.125 µg/mL (≈ 1.2 µM) | MIC after temperature treatment (S. aureus (ATCC 25923)): 6.25 µg/mL (≈ 2.4 µM) | MIC after pH treatment (S. aureus (ATCC 25923); pH 2): 6.25 µg/mL | MIC after pH treatment (S. aureus (ATCC 25923); pH 12): 6.25 µg/mL | antibacterial activity against S. aureus in the presence of LPS [2]: gradually decreased | MBC (S. aureus (ATCC25923); ATCC25923, 18 h): 6.25 µg/mL (≈ 2.4 µM) | MIC (S. aureus (ATCC25923); ATCC25923, 18 h): 6.25 µg/mL (≈ 2.4 µM) | reduction of viability (S. aureus (ATCC25923); S. aureus, at 6.25 μg/mL): 99.9% | MBC [3]: 25 µg/mL (≈ 9.58 µM) | MIC [3]: 6.25 µg/mL (≈ 2.4 µM) | CC50 (HCT116): 35.44 ± 0.47 µg/mL (≈ 13.6 µM) | CC50 (A549): 27.64 ± 0.41 µg/mL (≈ 10.6 µM) | CC50 (HaCaT): 36.84 ± 1.44 µg/mL (≈ 14.1 µM) | ABTS radical scavenging (ABTS radical scavenging): less than 20%
